Laboratory results reported in ChEMBL document CHEMBL1138701, “Anti-AIDS agents. Part 62: anti-HIV activity of 2'-substituted 4-methyl-3',4'-di-O-(-)-camphanoyl-(+)-cis-khellactone (4-methyl DCK) analogs” (Bioorg Med Chem Lett, 2004).

Tests used:
[1] = system: Human immunodeficiency virus; assay: Concentration required to inhibit 50% of HIV (human immunodeficiency virus) replication; assay type: functional, organism-based; details: Human immunodeficiency virus 1
H9 = assay: Concentration required to inhibit 50% growth of uninfected H9 cells; assay type: functional, cell-based; details: Homo sapiens
[2] = Therapeutic index expressed as ratio of IC50 for 50% growth inhibition to EC50 for 50% replication inhibition; assay type: cell-based; details: human, H9 cells; read-out: TI

| Compound | EC50 [1] [µM] | IC50 (H9) [µM] | selectivity ratio [2] |
| --- | --- | --- | --- |
| CCC1(CC)Oc2ccc3c(C)cc(=O)oc3c2[C@@H](OC(=O)C23CCC(C)(C(=O)O2)C3(C)C)[C@H]1OC(=O)C12CCC(C)(C(=O)O1)C2(C)C (stereo partly specified) | 2.84 | > 37.6 | > 13.2 |
| CCC1(C)Oc2ccc3c(C)cc(=O)oc3c2[C@@H](OC(=O)C23CCC(C)(C(=O)O2)C3(C)C)[C@H]1OC(=O)C12CCC(C)(C(=O)O1)C2(C)C (stereo partly specified) | 0.22 | > 38.4 | > 175 |
| Cc1cc(=O)oc2c3c(ccc12)OC[C@H](OC(=O)C12CCC(C)(C(=O)O1)C2(C)C)[C@@H]3OC(=O)C12CCC(C)(C(=O)O1)C2(C)C (stereo partly specified) | 6.9 | > 41.1 | > 6 |
| CCCC1(C)Oc2ccc3c(C)cc(=O)oc3c2[C@@H](OC(=O)C23CCC(C)(C(=O)O2)C3(C)C)[C@H]1OC(=O)C12CCC(C)(C(=O)O1)C2(C)C (stereo partly specified) | 6.4 | > 37.6 | > 5.9 |

The next compounds have a lower EC50 [1] than those just listed; values first:

| EC50 [1] [µM] | Compound | IC50 (H9) [µM] | selectivity ratio [2] |
| --- | --- | --- | --- |
| 0.049 | CC1(C)Oc2ccc3ccc(=O)oc3c2[C@@H](OC(=O)C23CCC(C)(C(=O)O2)C3(C)C)[C@H]1OC(=O)C12CCC(C)(C(=O)O1)C2(C)C (stereo partly specified) | > 16.1 | > 328 |
| 0.0059 | Cc1cc(=O)oc2c3c(ccc12)OC(C)(C)[C@H](OC(=O)C12CCC(C)(C(=O)O1)C2(C)C)[C@@H]3OC(=O)C12CCC(C)(C(=O)O1)C2(C)C (stereo partly specified) | > 38.9 | > 6600 |
| 0.04 | Cc1cn([C@H]2C[C@H](N=[N+]=[N-])[C@@H](CO)O2)c(=O)[nH]c1=O [ZIDOVUDINE] | 1870 | 39000 |
